{"source": "patent US8846873B2", "about": "“Antibodies directed to GPNMB and uses thereof” (Celldex Therapeutics, Inc., priority 2004, dated 2014)", "key": {"SK-Mel-2 cells": {"tested_on": "SK-Mel-2 cells", "test": "Clonogenic assay after GPNMB siRNA transfection", "type": "cell-based, human", "method": "SK-MeI-2 cells are transfected with 50 nM of control siRNA or siRNA targeting GPNMB. A. Cell lysates are prepared from the transfected SK-Mel-2 cells 2 and 4 days post-transfection and the expression of GPNMB (upper panel) or actin (lower panel) is determined by immunoblotting. Lane 1: Mock (oligofectamine) transfection. Lane 2: Control siRNA transfection. Lane 3: GPNMB siRNA transfection. B. Flow cytometry analysis of GPNMB expression 2 and 4 days after transfection. SK-Mel-2 cells are transfected with mock, control siRNA or GPNMB siRNA as indicted in the Materials and Methods. C. […] The surviving fraction is normalized to the untreated control and expressed as a percentage of control using GraphPad Prism graphing software. Each treatment is performed in triplicate. A representative experiment from two independent studies is shown.\nCells were plated in 96-well plates and allowed to recover overnight. […] The cells were then transferred into 6-well plates and allowed to form colonies. Colonies were stained with Giemsa stain (Sigma) and counted. The surviving cell fractions were calculated based upon the ratio of the treated sample and the untreated control. The results were expressed as a percentage of control using GraphPad Prism Version 4 software.\nThe amount of GPNMB expression was reduced for at least 7 days after transfection."}, "[1]": {"tested_on": "SK-MEL-2 melanoma xenografts", "test": "Human SK-MEL-2 melanoma xenograft in athymic mice", "type": "in vivo", "method": "Test Animals: Five- to 6-week old athymic mice (CD-1 nu/nu females), used for human tumor xenografts, were obtained from Harlan Laboratories (Indianapolis, Ind.). Animals were housed in specific pathogen-free conditions, according to the guidelines of the Association for Assessment and Accreditation of Laboratory Animal Care International (AAALAC International). Test animals were provided pelleted food and water ad libitum and kept in a room with conditioned ventilation (HVAC), temperature (22°±2° C.), relative humidity (55%±15%), and photoperiod (12 hr). All studies were carried out with approved institutional animal care and use protocols.\nHuman Melanoma Xenograft Models. The tumor inhibitory activity of the CR011-MMAE immunoconjugate was measured in an anti-tumor xenograft model using athymic mice, according to published methods (see Geran et al., Cancer Chemother. Rep. 3:1-104 (1972)). […] When tumors became established (10-20 days), the animals were pair-matched into groups (n=6 mice/group), and treatment was administered by intravenous injection (tail vein).\nThe SK-MEL-2 human melanoma (ATCC #HTB-68) was derived from a metastatic site (skin of thigh) of a person with malignant melanoma, and the SK-MEL-5 human melanoma (ATCC #HTB-70) was derived from a metastatic site (axillary lymph node) of a person with malignant melanoma (see Fogh et al., J. Natl. Cancer Inst. 59: 221-226 (1977)). Both cell lines were obtained from the American Type Culture Collection.\nThe effects of treatment were monitored by repetitive tumor measurements across 2 diameters with Vernier calipers; tumor size (in mg) was calculated using a standard formula, (W^2×L)/2, assuming a specific gravity of 1.0. Tumor size and body weights were assessed twice weekly. Mice were examined daily, however, and moribund animals were humanely euthanized if clinical indications of excessive pain or distress were noted (i.e., prostration, hunched posture, paralysis/paresis, distended abdomen, ulcerations, abscesses, seizures, and/or hemorrhages). Animals with tumors exceeding 2,000 mg were removed from the study and euthanized humanely.\nNo apparent or statistically significant anti-tumor effects were observed. […] In preliminary studies, tumor regression was complete and was not followed by regrowth of the tumor despite lengthy observation periods (up to 200 days)."}}, "note": "Entries after “also recorded” stand apart in the source; their conditions may differ."}
{"substance": "CR011-vcMMAE: anti-GPNMB antibody 1.15.1 coupled to monomethylauristatin E via protease-sensitive valine-citrulline linker", "values": [{"measurement": "sensitivity to growth-inhibitory activity following siRNA-mediated GPNMB knockdown", "setting": "SK-Mel-2 cells", "value": "less sensitive"}, {"measurement": "complete regressors", "setting": "[1]; 2 mg/kg cumulative dose, all dosing intervals", "value": 13, "unit": "%"}, {"measurement": "proportions of complete regressions (animals)", "setting": "[1]; 8 mg/kg cumulative dose, 5 groups of 6 animals", "value": "28/30"}, {"measurement": "complete regressions", "setting": "[1]; 8 mg/kg cumulative dose, all dosing intervals", "value": 93, "unit": "%"}, {"measurement": "tumor response", "setting": "[1]; CR011-ONC-1, CR011-vcMMAE 5 mg/kg/treatment i.v. q4d x4, components at doses identical to those in the immunoconjugate", "value": "Tumor growth inhibition and complete regression; also recorded: no discernible tumor was detected in all 6 of the test animals"}, {"measurement": "abnormal treatment effects on gross examination", "setting": "[1]; Study N-386", "value": "no abnormal treatment effects"}, {"measurement": "time after treatment commenced to significant treatment effects", "setting": "[1]; Study N-386, 20, 10, 5 or 2.5 mg/kg i.v. q4d x4, P≦0.014", "value": 4, "unit": "days"}, {"measurement": "anti-tumor effect", "setting": "[1]; Study N-386, i.v., CR011-vcMMAE 20, 10, 5 or 2.5 mg/kg q4d x4, vinblastine […] q4d x4", "value": "tumors rapidly diminished in size for the majority of the test animals"}, {"measurement": "effects of treatment on body weight or weight gain", "setting": "[1]; Study N-386, twice weekly body weight", "value": "no observable or statistically significant effects"}, {"measurement": "complete regressions", "setting": "[1]; cumulative dose of 32 mg/kg, all dosing intervals", "value": 100, "unit": "%"}, {"measurement": "schedule dependency of anti-tumor effects", "setting": "[1]; dosing intervals 0, 1, 4, 8, 16 days", "value": "not schedule-dependent"}, {"measurement": "re-growth of tumors that regressed completely", "setting": "[1]; observation period >200 days", "value": "did not re-grow"}]}
